The values below come from patent US10799507B2, “5-(7H-pyrrolo[2,3-d]pyrimidin-4-yl)-5-azaspiro[2.5]octane-8-carboxylic acid derivatives as novel JAK kinase inhibitors” (LEO Pharma A/S, priority 2017, dated 2020).

In one data set the target is JAK3 (Homo sapiens (Human), UniProt P52333). The data set is described as follows: JAK kinase assay (HTRF), JAK3. The data set is classed as biochemical. Particulars: catalytic domain, ATP at Km (2 μM). A digest of the protocol: (§1)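 HTRF read-out of biotinylated TK peptide phosphorylation (1 μM) after a 20-30 min RT reaction in pH 7.0 Hepes buffer with 5 mM MgCl2 and 0.75% DMSO. JAK3 (His-tagged catalytic domain) used 2 μM ATP; TYK2 (GST-tagged, aa 871-1187) used 13 μM ATP plus 50 nM SEB, each at ATP Km.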

Data set [1] in a line: in vitro metabolic stability in human liver microsomes. The settings on record: human, liver microsomes, 0.5 μM compound, 0.5 mg/mL microsomes, NADPH, 40 min, 37° C.; read-out: Human liver microsome Clapp (apparent intrinsic clearance). The data set is classed as in vitro ADME. A digest of the protocol:
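Compounds at 0.5 μM incubated in duplicate with human liver microsomes (0.5 mg/mL), phosphate buffer and NADPH at 37 °C for 40 min, sampled at 0, 5, 10, 20, 40 min into cold acetonitrile. LC-TOF-MS depletion gave elimination rate constant, from which apparent intrinsic clearance (Clapp) was calculated.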
A general note: Microsomes from liver hold many membrane-bound enzymes, among them those of drug oxidation.

The target in a further data set is JAK1 (Homo sapiens (Human), UniProt P23458). The data set is described as follows: JAK kinase assay (HTRF), JAK1. The data set is classed as biochemical. The settings on record: catalytic domain, ATP at Km (7 μM). A digest of the protocol:
(§2)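 Catalytic-domain human JAK1 (GST-tagged, aa 850-1154) or His-tagged JAK2, baculovirus-expressed, phosphorylated 1 µM biotinylated TK peptide at Km ATP (JAK1 7 µM, 10 mM MgCl2, 50 nM SEB; JAK2 4 µM, 5 mM MgCl2) in pH 7.0 Hepes, 20-30 min RT. EDTA stop; overnight streptavidin-XL665/cryptate HTRF read.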
(In general: In TR-FRET formats the signal depends on donor and acceptor labels being close together.)

The target in the next data set is JAK2 (Homo sapiens (Human), UniProt O60674). In words: JAK kinase assay (HTRF), JAK2. The data set is classed as biochemical. Particulars: catalytic domain, ATP at Km (4 μM). A digest of the protocol: as §2
The target of another data set is TYK2 (Homo sapiens (Human), UniProt P29597). The data set is described as follows: JAK kinase assay (HTRF), TYK2. The data set is classed as biochemical. Particulars: catalytic domain, ATP at Km (13 μM). A digest of the protocol: as §1
Chain of TYK2 (P29597 871-1187): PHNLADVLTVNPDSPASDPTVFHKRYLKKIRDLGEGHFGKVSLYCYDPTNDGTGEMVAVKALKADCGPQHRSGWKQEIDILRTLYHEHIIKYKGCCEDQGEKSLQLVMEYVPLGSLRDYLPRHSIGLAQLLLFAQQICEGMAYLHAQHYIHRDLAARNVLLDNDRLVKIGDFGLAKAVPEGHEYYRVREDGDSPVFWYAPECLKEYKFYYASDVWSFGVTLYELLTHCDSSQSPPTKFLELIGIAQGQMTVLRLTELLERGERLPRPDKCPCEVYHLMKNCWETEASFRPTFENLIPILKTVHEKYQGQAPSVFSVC

Chain of JAK1 (P23458 850-1154): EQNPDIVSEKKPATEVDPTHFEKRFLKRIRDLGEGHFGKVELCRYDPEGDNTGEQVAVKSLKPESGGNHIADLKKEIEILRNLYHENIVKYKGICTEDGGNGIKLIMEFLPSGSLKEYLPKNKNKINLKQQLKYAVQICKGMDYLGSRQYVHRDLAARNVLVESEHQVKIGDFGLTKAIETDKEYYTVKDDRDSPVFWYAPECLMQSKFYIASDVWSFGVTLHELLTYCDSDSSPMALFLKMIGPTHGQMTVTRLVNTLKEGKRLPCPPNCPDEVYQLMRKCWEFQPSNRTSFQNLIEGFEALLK
Chain of JAK2 (O60674 849-1124): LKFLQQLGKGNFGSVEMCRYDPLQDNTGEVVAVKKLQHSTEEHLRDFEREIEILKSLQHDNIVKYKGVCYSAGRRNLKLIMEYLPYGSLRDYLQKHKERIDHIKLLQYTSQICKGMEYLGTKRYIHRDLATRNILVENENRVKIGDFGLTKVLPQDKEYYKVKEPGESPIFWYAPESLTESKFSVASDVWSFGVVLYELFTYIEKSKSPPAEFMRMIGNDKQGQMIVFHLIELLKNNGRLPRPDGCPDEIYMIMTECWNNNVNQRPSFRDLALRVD
Chain of JAK3 (P52333 822-1111): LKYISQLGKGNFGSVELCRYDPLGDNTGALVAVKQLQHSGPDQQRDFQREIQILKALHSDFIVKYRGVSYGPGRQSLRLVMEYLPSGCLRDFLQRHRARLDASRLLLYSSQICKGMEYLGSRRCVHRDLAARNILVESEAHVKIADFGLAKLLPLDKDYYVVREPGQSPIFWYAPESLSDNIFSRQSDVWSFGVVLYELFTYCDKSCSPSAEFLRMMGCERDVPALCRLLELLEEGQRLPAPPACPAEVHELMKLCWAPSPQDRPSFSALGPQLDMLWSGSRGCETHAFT

With `O=C(NCC1(CO)CCCC1)C1CCN(c2ncnc3[nH]ccc23)CC12CC2` (stereo not drawn) [Example 58, N-[[1-(hydroxymethyl)cyclopentyl]methyl]-5-(7H-pyrrolo[2,3-d]pyrimidin-4-yl)-5-azaspiro[2.5]octane-8-carboxamide], the EC50 worked out at 30.3 nM on JAK3, 4.1 nM at JAK1, 13 nM on JAK2 and 142 nM at TYK2. For the same compound, the CLint scaled at 0.5 μM in data set [1] was determined as 143 mL/min/kg.
For `Cc1cc(C#N)ccc1[C@H](CO)NC(=O)[C@H]1CCN(c2ncnc3[nH]ccc23)CC12CC2` [Example 37, (8S)-N-[(1R)-1-(4-cyano-2-methyl-phenyl)-2-hydroxy-ethyl]-5-(7H-pyrrolo[2,3-d]pyrimidin-4-yl)-5-azaspiro[2.5]octane-8-carboxamide] the same measures were 36.4 nM, 2 nM, 10.2 nM, 102 nM and 91 mL/min/kg.
For `O=C(N[C@@H](CO)c1ccc(F)cc1)[C@H]1CCN(c2ncnc3[nH]ccc23)CC12CC2` [Example 17, (8S)-N-[(1R)-1-(4-fluorophenyl)-2-hydroxy-ethyl]-5-(7H-pyrrolo[2,3-d]pyrimidin-4-yl)-5-azaspiro[2.5]octane-8-carboxamide] the same measures were 5.7 nM, 1 nM, 3 nM, 20.5 nM and 43 mL/min/kg.
Consider `O=C(N[C@@H](CO)c1ccc(F)cc1F)[C@H]1CCN(c2ncnc3[nH]ccc23)CC12CC2` [Example 34, (8S)-N-[(1R)-1-(2,4-difluorophenyl)-2-hydroxy-ethyl]-5-(7H-pyrrolo[2,3-d]pyrimidin-4-yl)-5-azaspiro[2.5]octane-8-carboxamide], for which the EC50 at JAK3 was 6.4 nM; on JAK1, 1.9 nM; at JAK2, 3.7 nM; on TYK2, 32.9 nM. Moreover, the CLint scaled at 0.5 μM in data set [1] came to 69 mL/min/kg.
On to `O=C(N[C@H](CO)C(=O)OCC1CC(F)(F)C1)[C@H]1CCN(c2ncnc3[nH]ccc23)CC12CC2` [Example 42, (3,3-difluorocyclobutyl)methyl (2R)-3-hydroxy-2-[[(8S)-5-(7H-pyrrolo[2,3-d]pyrimidin-4-yl)-5-azaspiro[2.5]octane-8-carbonyl]amino]propanoate], for which the EC50 on JAK3 is 20.2 nM; at JAK1, 2.7 nM; at JAK2, 6.7 nM; on TYK2, 51.3 nM. For the same compound, the CLint scaled at 0.5 μM in data set [1] was above 200 mL/min/kg.
For `N#CCC1(COC(=O)C2CCN(c3ncnc4[nH]ccc34)CC23CC3)CC1` (stereo not drawn) [Example 164, [1-(cyanomethyl)cyclopropyl]methyl 5-(7H-pyrrolo[2,3-d]pyrimidin-4-yl)-5-azaspiro[2.5]octane-8-carboxylate] the same measures were 19 nM, 4 nM, 5 nM, 70 nM and above 200 mL/min/kg.
As for `C[C@H](NC(=O)[C@H]1CCN(c2ncnc3[nH]ccc23)CC12CC2)[C@@H](O)c1ccc(F)c(F)c1` [Example 149, (8S)-N-[(1S,2S)-2-(3,4-difluorophenyl)-2-hydroxy-1-methyl-ethyl]-5-(7H-pyrrolo[2,3-d]pyrimidin-4-yl)-5-azaspiro[2.5]octane-8-carboxamide], the EC50 amounted to 0.6 nM at JAK3, 0.4 nM at JAK1, 200 nM on JAK2 and 4.2 nM at TYK2. Also, the CLint scaled at 0.5 μM in data set [1] is above 200 mL/min/kg.
For `Cc1cc([C@H](O)CNC(=O)[C@H]2CCN(c3ncnc4[nH]ccc34)CC23CC3)ncc1F` [Example 44, (8S)-N-[(2R)-2-(5-fluoro-4-methyl-2-pyridyl)-2-hydroxy-ethyl]-5-(7H-pyrrolo[2,3-d]pyrimidin-4-yl)-5-azaspiro[2.5]octane-8-carboxamide], the EC50 turned out to be 68.5 nM at JAK3, 3.1 nM at JAK1, 15.8 nM at JAK2 and 63.2 nM on TYK2. Further, the CLint scaled at 0.5 μM in data set [1] is above 200 mL/min/kg.
In the case of `N#Cc1ccc([C@H](CO)NC(=O)C2CCN(c3ncnc4[nH]ccc34)CC23CC3)cc1` (stereo partly drawn) [Example 19, N-[(1R)-1-(4-cyanophenyl)-2-hydroxy-ethyl]-5-(7H-pyrrolo[2,3-d]pyrimidin-4-yl)-5-azaspiro[2.5]octane-8-carboxamide], the EC50 at JAK3 turned out to be 8.4 nM; on JAK1, 1.1 nM; at JAK2, 4 nM; at TYK2 it was 109 nM. Moreover, in data set [1], the CLint scaled at 0.5 μM was 88 mL/min/kg.
For `O=C(NC[C@H](O)C1CCCCC1)[C@H]1CCN(c2ncnc3[nH]ccc23)CC12CC2` [Example 15, (8S)-N-[(2R)-2-cyclohexyl-2-hydroxy-ethyl]-5-(7H-pyrrolo[2,3-d]pyrimidin-4-yl)-5-azaspiro[2.5]octane-8-carboxamide] the same measures were 3.7 nM, 0.9 nM, 1.7 nM, 7.4 nM and above 200 mL/min/kg.
Take `O=C(NCC1(O)CCCCC1)[C@H]1CCN(c2ncnc3[nH]ccc23)CC12CC2` [Example 74, (8S)-N-[(1-hydroxycyclohexyl)methyl]-5-(7H-pyrrolo[2,3-d]pyrimidin-4-yl)-5-azaspiro[2.5]octane-8-carboxamide]: the EC50 is 23.2 nM on JAK3, 6.1 nM on JAK1, 15.3 nM at JAK2 and 55.7 nM at TYK2. Moreover, the CLint scaled at 0.5 μM in data set [1] came to 37 mL/min/kg.
Taken in the same sequence, the figures for `O=C(NCC1(O)CCCC1)[C@H]1CCN(c2ncnc3[nH]ccc23)CC12CC2` [Example 49, (8S)-N-[(1-hydroxycyclopentyl)methyl]-5-(7H-pyrrolo[2,3-d]pyrimidin-4-yl)-5-azaspiro[2.5]octane-8-carboxamide] were 26.1 nM, 3.4 nM, 15.1 nM, 43.4 nM and 35 mL/min/kg.
As to `C[C@H](NC(=O)[C@H]1CCN(c2ncnc3[nH]ccc23)CC12CC2)[C@@H](O)c1ccc(C#N)cc1` [Example 43, (8S)-N-[(1S,2S)-2-(4-cyanophenyl)-2-hydroxy-1-methyl-ethyl]-5-(7H-pyrrolo[2,3-d]pyrimidin-4-yl)-5-azaspiro[2.5]octane-8-carboxamide], the EC50 at JAK3 stood at 8.8 nM; on JAK1 it was 2.8 nM; on JAK2, 5.2 nM; on TYK2 it was 131 nM. Further, the CLint scaled at 0.5 μM in data set [1] was found to be 166 mL/min/kg.
Take `Cc1cc([C@H](CO)NC(=O)[C@H]2CCN(c3ncnc4[nH]ccc34)CC23CC3)ccc1C#N` [Example 54, (8S)-N-[(1R)-1-(4-cyano-3-methyl-phenyl)-2-hydroxy-ethyl]-5-(7H-pyrrolo[2,3-d]pyrimidin-4-yl)-5-azaspiro[2.5]octane-8-carboxamide]: the EC50 on JAK3 was 33 nM; at JAK1 it was 3.6 nM; at JAK2, 13.5 nM; at TYK2, 135 nM. In data set [1], the CLint scaled at 0.5 μM was found to be 142 mL/min/kg.
Taken in the same sequence, the figures for `O=C(NC[C@@H](O)c1ccccc1)[C@H]1CCN(c2ncnc3[nH]ccc23)CC12CC2` [Example 51, (8S)-N-[(2S)-2-hydroxy-2-phenyl-ethyl]-5-(7H-pyrrolo[2,3-d]pyrimidin-4-yl)-5-azaspiro[2.5]octane-8-carboxamide] were 49.2 nM, 3.5 nM, 11.3 nM, 40.5 nM and above 200 mL/min/kg.
With `O=C(N[C@@H](CO)[C@@H](O)c1ccc(F)cc1)[C@H]1CCN(c2ncnc3[nH]ccc23)CC12CC2` [Example 9, (8S)-N-[(1S,2S)-2-(4-fluorophenyl)-2-hydroxy-1-(hydroxymethyl)ethyl]-5-(7H-pyrrolo[2,3-d]pyrimidin-4-yl)-5-azaspiro[2.5]octane-8-carboxamide], the EC50 on JAK3 stood at 7 nM; at JAK1, 0.7 nM; at JAK2, 1.6 nM; at TYK2, 7.7 nM. In addition, in data set [1], the CLint scaled at 0.5 μM was above 200 mL/min/kg.
Taken in the same sequence, the figures for `O=C(N[C@@H](CO)c1ccccc1)C1CCN(c2ncnc3[nH]ccc23)CC12CC2` (stereo partly drawn) [Example 69, N-[(1R)-2-hydroxy-1-phenyl-ethyl]-5-(7H-pyrrolo[2,3-d]pyrimidin-4-yl)-5-azaspiro[2.5]octane-8-carboxamide] were 29.1 nM, 5.1 nM, 12 nM, 298 nM and 44 mL/min/kg.
For `O=C(NCC1CC(F)(F)C1)C1CCN(c2ncnc3[nH]ccc23)CC12CC2` (stereo not drawn) [Example 56, N-[(3,3-difluorocyclobutyl)methyl]-5-(7H-pyrrolo[2,3-d]pyrimidin-4-yl)-5-azaspiro[2.5]octane-8-carboxamide] the same measures were 18.1 nM, 3.9 nM, 8.3 nM, 170 nM and 63 mL/min/kg.

What is called EC50 is the midpoint of the concentration-response curve. A lower EC50 goes with greater potency.
